SMILES strings stand for the structures.

Data set [1] deals with SARS-CoV-2 virus (B CoV/Korea/KCDC03/2020, NCCP43326). In words: Time-of-addition assay in Vero cells. It counts as cell-based. Particulars: 50 μM, MOI 3.
Data set [2] can be described thus: in vitro. Particulars: monkey.
For data set [3], the system named is influenza A H1N1 A/California/07/2009. In words: Antiviral activity against influenza virus in MDCK cells. Particulars: concentration of 6.3 μM. It counts as cell-based, influenza A virus.
The subject of data set [4] is SARS-CoV-2 (βCoV/KOR/KCDC03/2020). In words: microbe, parasite or virus in culture. Particulars: Severe acute respiratory syndrome coronavirus 2, Vero.
The subject of data set [5] is SARS-CoV-2 spike pseudovirus particles. Put plainly: organism not typed. It counts as cell-based.
The test system of data set [6] is SARS-CoV-2 (βCoV/KOR/KCDC03/2020). Put plainly: microbe, parasite or virus in culture. Particulars: Severe acute respiratory syndrome coronavirus 2, Calu-3.
The test system is the same in data set [7]. In words: in vitro. Particulars: human.
The test system of data set [8] is influenza A H3N2 A/Hong Kong/4801/2014. Put plainly: Antiviral activity against influenza virus in MDCK cells. It is filed as cell-based, influenza A virus. The conditions noted are these: concentration of 6.3 μM.
Data set [9] deals with SARS-CoV-2 βCoV/Korea/KCDC03/2020, NCCP43326. Put plainly: Efficacy in SARS-CoV-2 infected hACE2 transgenic mice (lung virus titer and viral RNA). Particulars: orally at 50 mg/kg, once a day three times, lungs on third day. It counts as in vivo.
Data set [10] deals with influenza B B/Brisbane/60/2008. Put plainly: Antiviral activity against influenza virus in MDCK cells. It is filed as cell-based, influenza B virus. The conditions noted are these: concentration of 6.3 μM.
Data set [11] concerns SARS-CoV-2 (βCoV/KOR/KCDC03/2020). Put plainly: in vitro. The conditions noted are these: monkey.
Data set [12] is described as follows: in vitro. The conditions noted are these: human.

Consider `CCCCCOc1cccc(/C=C/C23N=C(O)CCN2c2ccccc2C3(C)C)c1` (stereo not shown) [MolPort-005-980-235, 10,10-dimethyl-10a-[(1E)-2-[3-(pentyloxy)phenyl]ethenyl]-3H,4H,10H,10aH-pyrimido[1,2-a]indol-2-ol], for which the virus infection pattern entry in data set [1] (treated 1 hour after virus infection) is reported as “virus infection could not be prevented”; in data set [1] (treated 1 hour before virus infection or simultaneously with the virus), “virus infection did not occur”. The CC50 in the data set “in vitro [2]” was above 100 µM. In addition, the figures for the antiviral activity entry in [3], in data set [8] and in [10] were “about 90%”, “about 90%” and “about 50%”, respectively. Also, the IC50 in data set [4] came out at 8.49 µM; in [5] (48 h) it was 27.5 µM; in data set [6], 15.6 µM. The inhibition at 50 µM in [5] (Severe acute respiratory syndrome coronavirus 2, read-out: inhibition of intracellular entry of the SARS-CoV-2 virus) was around 90%. The selectivity ratio in [7] came out at 6.42. Moreover, the “viral RNA in the lungs” value in data set [9] is listed as “decreased at a statistically significant level”. For the same compound, the “viral titer (TCID50) in the lungs” value in [9] was “tended to decrease”.

In “in vitro [2]”, `O=C(CCCNC(=O)c1cc2ccccc2o1)NCCc1c[nH]c2ccccc12` [MolPort-005-974-761, 4-[(1-benzofuran-2-yl)formamido]-N-[2-(1H-indol-3-yl)ethyl]butanamide] showed a CC50 above 100 µM. The compound also came in with a concentration for half-maximal inhibition (IC50) in data set [4] of 71.3 µM.

For the compound `CCCCCCCOC(=O)c1ccc(OC(=O)c2cccnc2)cc1` [MolPort-003-711-757, 4-[(heptyloxy)carbonyl]phenyl pyridine-3-carboxylate], in “in vitro [2]”, the CC50 worked out at 49 µM. Further, the selectivity ratio in data set [11] was found to be 2.02. For the same compound, the concentration for half-maximal inhibition (IC50) in data set [4] came out at 24.3 µM.

The compound `CCCCCCCc1ccc(C(=O)Oc2ccc(SC)cc2)cc1` [MolPort-003-713-147, 4-(methylsulfanyl)phenyl 4-heptylbenzoate] showed a CC50 in the data set “in vitro [2]” above 100 µM. Besides, in data set [4], the half-inhibitory concentration (IC50) worked out at 94.4 µM.

In the data set “in vitro [2]”, `CC/C=C\C/C=C\C/C=C\C/C=C\C/C=C\CCCC(=O)O` [MolPort-003-933-180, (5Z,8Z,11Z,14Z,17Z)-icosa-5,8,11,14,17-pentaenoic acid] had a CC50 of 70.5 µM. The selectivity ratio in data set [11] was determined as 1.69. Also, in [4], the IC50 stood at 41.8 µM.

As for `CCOC(=O)c1c(C(C)(C)C)oc2ccc(OC(=O)c3ccc(OC)cc3)cc12` [MolPort-000-424-809, Ethyl 2-tert-butyl-5-(4-methoxybenzoyloxy)-1-benzofuran-3-carboxylate], the CC50 in the data set “in vitro [2]” and in “in vitro [12]” was above 100 µM in each case. For the same compound, the half-inhibitory concentration (IC50) in data set [4] was determined as 31.2 µM; in data set [6] it was 50.7 µM. Moreover, the selectivity ratio in data set [7] was 1.97.

`CC/C=C/C/C=C/C/C=C/C/C=C/C/C=C/C/C=C\CCC(=O)O` [MolPort-008-266-638, (4Z,7E,10E,13E,16E,19E)-docosa-4,7,10,13,16,19-hexaenoic acid]: the CC50 in the data set “in vitro [2]” amounted to 36.2 µM. The selectivity ratio in data set [11] stood at 1.29. In data set [4], this compound yielded a half-inhibitory concentration (IC50) of 28.2 µM.

In the case of `CC(C)(C)c1cc(CCCOC(=O)CNc2ccccc2)cc(C(C)(C)C)c1O` [MolPort-002-151-168, 3-(3,5-di-tert-butyl-4-hydroxyphenyl)propyl 2-(phenylamino)acetate], the CC50 in “in vitro [2]” and in “in vitro [12]” was above 100 µM throughout. Besides, the values for the concentration for half-maximal inhibition (IC50) in data set [4] and in data set [6] were 23.5 µM and 60.7 µM, respectively. In addition, in data set [7], the selectivity ratio is 1.65.

As to `O=C(Cn1ccc2ccc(OCc3ccccc3)cc21)NC[C@@H]1CCCN2CCCC[C@H]12` [MolPort-027-564-475, N-{[(1S,9aR)-octahydro-1H-quinolizin-1-yl]methyl}-2-[6-(benzyloxy)-1H-indol-1-yl]acetamide], the CC50 in the data set “in vitro [2]” is 34.3 µM. For the same compound, the selectivity ratio in [11] turned out to be 1.85. Further, 18.5 µM corresponded to half-maximal inhibition in [4] (IC50).

`O=C(NC[C@@H]1CCCN2CCCC[C@H]12)c1cccc(-c2cc3ccccc3oc2=O)c1` [MolPort-027-564-039, N-{[(1S,9aR)-octahydro-1H-quinolizin-1-yl]methyl}-3-(2-oxo-2H-chromen-3-yl)benzamide]: in “in vitro [2]”, the CC50 is above 100 µM. The compound also showed a half-inhibitory concentration (IC50) in data set [4] of 23.3 µM.

`O=C(NCCc1ccccc1)c1cc2c([nH]c3ccccc32)c(CCc2ccccc2)n1` [MolPort-002-526-760, N,1-bis(2-phenylethyl)-9H-pyrido[3,4-b]indole-3-carboxamide] showed a CC50 in the data set “in vitro [2]” of 42.2 µM. In addition, the selectivity ratio in [11] stood at 1.63. Also, in [4], it took 25.8 µM to reach half-maximal inhibition (IC50).

The compound `O=C(C[C@@H]1CCNC[C@@H]1Cc1cc(COc2ccccc2)on1)NCc1ccc(F)cc1` [MolPort-005-947-745, N-[(4-fluorophenyl)methyl]-2-[(3R,4S)-3-{[5-(phenoxymethyl)-1,2-oxazol-3-yl]methyl}piperidin-4-yl]acetamide] gave a CC50 in the data set “in vitro [2]” of 34.7 µM. Further, in data set [11], the selectivity ratio turned out to be 1.43. The compound also came in with an IC50 in data set [4] of 24.3 µM.

`c1ccc(Oc2cccc(OCCCN3CCCCC3c3cccnc3)c2)cc1` (stereo not shown) [MolPort-000-829-850, 3-{1-[3-(3-phenoxyphenoxy)propyl]piperidin-2-yl}pyridine and oxalic acid] came in with a CC50 in “in vitro [2]” of 32.4 µM. The selectivity ratio in data set [11] was found to be 2.08. In addition, it took 15.6 µM to reach half-maximal inhibition in [4] (IC50).

`CCCCCCCC/C=C\CCCCCCCC(=O)O` [MolPort-001-788-274, (9Z)-octadec-9-enoic acid]: the CC50 in “in vitro [2]” was above 100 µM. Also, in data set [4], the IC50 came to 67.9 µM.

`O=C(OC[C@@H]1CCCN2CCCC[C@H]12)c1ccc(CSCc2ccccc2)o1` [MolPort-002-520-573, [(1R,9aR)-octahydro-1H-quinolizin-1-yl]methyl 5-[(benzylsulfanyl)methyl]furan-2-carboxylate] yielded a CC50 in “in vitro [2]” of 58 µM. For the same compound, the selectivity ratio in [11] worked out at 2.04. Besides, the IC50 in data set [4] was 28.5 µM.

On to `CCCCCCCOC(=O)c1ccc(OC(=O)c2cncc(Br)c2)cc1` [MolPort-003-713-431, 4-[(heptyloxy)carbonyl]phenyl 5-bromopyridine-3-carboxylate], for which, in the data set “in vitro [2]”, the CC50 is above 100 µM. This compound had an IC50 in data set [4] of 57.5 µM.

As for `CC(C)(C)c1cc(CCCOC(=O)CNC2CCCCC2)cc(C(C)(C)C)c1O` [MolPort-002-152-403, 3-(3,5-di-tert-butyl-4-hydroxyphenyl)propyl 2-(cyclohexylamino)acetate], the CC50 in “in vitro [2]” was 56.2 µM. Besides, the selectivity ratio in [11] is 1.73. For the same compound, in data set [4], inhibition was half-maximal at 32.5 µM (IC50).

`CC(C)CCC(CCNCc1ccc(OC(C)C)cc1)C1CCOC(C)(C)C1` (stereo not shown) [MolPort-009-758-577, [3-(2,2-dimethyloxan-4-yl)-6-methylheptyl]({[4-(propan-2-yloxy)phenyl]methyl})amine and oxalic acid] returned a CC50 in the data set “in vitro [2]” of 14.5 µM. In data set [11], the selectivity ratio came out at 1.83. For the same compound, inhibition in data set [4] was half-maximal at 7.94 µM (IC50).

As to `CCCc1cc2c3c(c(=O)oc2cc1OC(=O)CNC(=O)OCc1ccccc1)CCC3` [MolPort-002-526-563, 4-oxo-8-propyl-1H,2H,3H,4H-cyclopenta[c]chromen-7-yl 2-{[(benzyloxy)carbonyl]amino}acetate], in “in vitro [2]”, the CC50 amounted to 33.4 µM. Besides, the selectivity ratio in [11] was 1.16. In data set [4], this compound registered an IC50 of 28.7 µM.

As for `CCCCCCCCCCC#CC#CCCCCCCCCC(=O)O` [MolPort-003-939-688, tricosa-10,12-diynoic acid], the CC50 in “in vitro [2]” and in “in vitro [12]” was above 100 µM throughout. For the same compound, the values for the IC50 in [4] and in [6] were 29.9 µM and 83.8 µM, respectively. Further, the selectivity ratio in [7] turned out to be 1.19.

As for `CCCCCCCc1ccc(C(=O)Oc2ccc(C(=O)O)cc2)cc1` [MolPort-003-709-991, 4-(4-heptylbenzoyloxy)benzoic acid], the CC50 in “in vitro [2]” is above 100 µM. In data set [4], this compound came in with an IC50 of 43.3 µM.

Compound `CCCCC/C=C\C/C=C\CCCCCCCC(=O)O` [MolPort-001-788-459, (9Z,12Z)-octadeca-9,12-dienoic acid] displayed a CC50 in the data set “in vitro [2]” above 100 µM. The same compound showed a half-maximal inhibitory concentration (IC50) in data set [4] of 37.6 µM.

In turn, `CCCCCC[C@@H](O)C/C=C\CCCCCCCC(=O)O` [MolPort-003-939-239, (9Z,12R)-12-hydroxyoctadec-9-enoic acid] registered a CC50 in “in vitro [2]” above 100 µM. The IC50 in [4] was found to be 60.5 µM.

In turn, `CC/C=C\C/C=C\C/C=C\C/C=C\C/C=C\C/C=C\CCC(=O)O` [MolPort-003-932-890, (4Z,7Z,10Z,13Z,16Z,19Z)-docosa-4,7,10,13,16,19-hexaenoic acid] displayed a CC50 in “in vitro [2]” of 62.4 µM. Also, the selectivity ratio in [11] was 1.06. In data set [4], the half-maximal inhibitory concentration (IC50) was 58.6 µM.

Take `CCCCCCCCC1OCC(OC(=O)c2ccc(OC)cc2)CO1` (stereo not shown) [MolPort-002-515-990, 2-octyl-1,3-dioxan-5-yl 4-methoxybenzoate]: the CC50 in the data set “in vitro [2]” and in the data set “in vitro [12]” was above 100 µM each time. Also, the IC50 in [4] stood at 24.6 µM; in data set [6], 52.2 µM. In data set [7], the selectivity ratio was 1.92.

The compound `CC/C=C\C/C=C\C/C=C\CCCCCCCC(=O)O` [MolPort-003-937-817, (9Z,12Z,15Z)-octadeca-9,12,15-trienoic acid] registered a CC50 in “in vitro [2]” above 100 µM. The selectivity ratio in data set [11] is 1.71. In data set [4], this compound displayed an IC50 of 58.6 µM.

The IC50 is the concentration that inhibits the measured activity by half. Broadly, the inhibition is how much of the control response was suppressed.

Source of the values: US20260130917A1, “ANTIVIRAL COMPOSITION FOR CORONAVIRUS OR INFLUENZA VIRUS, USING NATURAL PRODUCTS, AND USE THEREOF” (priority 2022, published 2026).
